6 compounds from patent publication US10662229B2, “Spider venom peptides and methods of use for modulating sodium channels” (priority 2016, dated 2020) can be followed below.

Where a SMILES comes first, the peptide text is derived from it. Bridges are numbered along the chain shown (N, C = ends).

The test system of data set [1] is motor performance of mice. Nature of the data set: Motor assessment, Parallel Rod Floor Test. The format is in vivo. The conditions noted are these: i.p.; Pnc1a 3 mg/kg, PF-04856254 30 mg/kg, CNV1014802 30 mg/kg, GpTx-1 0.1 mg/kg, gabapentin 100 mg/kg. The procedure: (§1) For behavioural assessment adult male C57BL/6J mice aged 6-8 weeks were used. Animals were housed in groups of 3 or 4 per cage, under 12 h light-dark cycles and had standard rodent chow and water ad libitum.
Motor performance was assessed using the Parallel Rod Floor Test and analyzed using ANY-Maze software (Stoelting Co., version 4.70, Wood Dale, Ill., USA). […] Mice were then placed in the Parallel Rod Floor Test apparatus, and the distance travelled (m) and number of foot slips were recorded over 1 min using the ANY-Maze software. The ataxia index was calculated by dividing the number of foot slips by the distance travelled (m).

The target in another data set is T1, hNav1.1 (Homo sapiens, UniProt P35498).
T1 construct: host or cells: HEK293
The data set is described as follows: FLIPR membrane potential assay, hNav1.1. The format is cell-based. The conditions noted are these: for Selectivity for Nav1.7, Nav subtype 1.1: membrane potential assay. Summed up:
(§2)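 Stable HEK293 lines expressing each human Nav subtype were plated 48 h before the assay and loaded with red membrane potential dye for 30 min at 37 °C.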

The target in the next data set is T2, hNav1.2 (Homo sapiens, UniProt Q99250).
T2 construct: host or cells: HEK293
Nature of the data set: FLIPR membrane potential assay, hNav1.2. The conditions noted are these: for Selectivity for Nav1.7, Nav subtype 1.2: membrane potential assay. The format is cell-based. Summed up:
as §2

In a further data set the target is T3, hNav1.3 (Homo sapiens, UniProt Q9NY46).
T3 construct: host or cells: HEK293
The data set is described as follows: FLIPR membrane potential assay, hNav1.3. The format is cell-based. The conditions noted are these: for Selectivity for Nav1.7, Nav subtype 1.3: membrane potential assay. Put shortly:
as §2

In the next data set the target is T4, hNav1.4 (Homo sapiens, UniProt P35499).
T4 construct: host or cells: HEK293
The data set is described as follows: FLIPR membrane potential assay, hNav1.4. The conditions noted are these: for Selectivity for Nav1.7, Nav subtype 1.4: membrane potential assay. The format is cell-based. Summed up:
as §2

The next data set addresses T5, hNav1.5 (Homo sapiens, UniProt Q14524).
T5 construct: host or cells: HEK293
Nature of the data set: FLIPR membrane potential assay, hNav1.5. The format is cell-based. The conditions noted are these: for Selectivity for Nav1.7, Nav subtype 1.5: membrane potential assay. Summed up:
as §2

Another data set concerns the target T6, hNav1.6 (Homo sapiens, UniProt Q9UQD0).
T6 construct: host or cells: HEK293
Nature of the data set: FLIPR membrane potential assay, hNav1.6. The format is cell-based. The conditions noted are these: for Selectivity for Nav1.7, Nav subtype 1.6: membrane potential assay. Summed up: as §2

Data set [2] deals with T7, hNav1.7 (Homo sapiens, UniProt Q15858).
T7 construct: host or cells: HEK293
Nature of the data set: FLIPR membrane potential assay, hNav1.7. The format is cell-based. The conditions noted are these: for Selectivity for Nav1.7, Nav subtype 1.7: membrane potential assay, reference subtype. Put shortly: as §2

For another data set, the target named is T8, hNav1.8 (Homo sapiens, UniProt Q9Y5Y9).
T8 construct: host or cells: HEK293
Nature of the data set: FLIPR membrane potential assay, hNav1.8. The format is cell-based. The conditions noted are these: for Selectivity for Nav1.7, Nav subtype 1.8: membrane potential assay. Put shortly:
as §2

For data set [3], the target named is T7, hNav1.7. The data set is described as follows: Automated patch clamping (QPatch-16), hNav1.7. The format is cell-based. The conditions noted are these: 100 nM. The method, then: HEK293 cells stably expressing hNav1.1-1.7 or CHO cells stably expressing hNav1.8 (as described in Example 3 above) were cultured in a T-175 flask in selection antibiotic-free media at 37° C. Cells were grown to 70-80% confluence and harvested using Detachin (Bio-Scientific, NSW, Australia) at 37° C. for 2 min. Dissociated cells were then resuspended in Ex-Cell ACF CHO Medium with HEPES (25 mM; Sigma-Aldrich Co.) and allowed to recover on the QStirrer for 30 min.
The extracellular solution contained in mM: NaCl 145, KCl 4, CaCl2 2, MgCl2 1, HEPES 10 and glucose 10. The pH was adjusted to 7.4 with NaOH and osmolarity was adjusted with sucrose to 305 mOsm. The intracellular solution contained in mM: CsF 140, ethylene glycol tetraacetic acid (EGTA)/CsOH 1/5, HEPES 10 and NaCl 10. The pH was adjusted to 7.3 with CsOH and osmolarity adjusted with sucrose to 320 mOsm.
Whole-cell patch-clamp experiments were performed on a QPatch-16 automated electrophysiology platform (Sophion Bioscience, Ballerup, Denmark) using 16-channel planar patch chip plates (QPlates; Sophion Bioscience) with a patch hole diameter of 1 μm and resistance of 2±0.02 MΩ with the following parameters: positioning pressure −60 mbar, minimum seal resistance 0.1 GΩ, holding potential −100 mV, holding pressure −20 mbar.
Whole-cell currents were filtered at 5 kHz and acquired at 25 kHz.
The current-voltage (IV) curve was constructed with a holding potential of −80 mV followed by a pre-pulse of −100 mV for 50 ms and a series of 50 ms step pulses that ranged from −80 to 50 mV in 5 mV increments before returning to a holding potential of −80 mV. Voltage-dependence of activation was determined as normalized Nav conductance (GNa) using: GNa=INa/(Vmemb−Vrev), where Vmemb is the membrane potential and Vrev is the reversal potential for each cell. The voltage of activation data was fitted to a Boltzmann sigmoidal curve using GraphPad Prism, version 6.0.

The test system of data set [4] is carrageenan-induced mechanical and thermal allodynia in mice. The data set is described as follows: Carrageenan model. The format is in vivo. The conditions noted are these: naloxone methiodide 100 mg/kg i.p. The procedure:
as §1
λ-Carrageenan (Sigma-Aldrich Co.) was dissolved in phosphate buffered saline to a 1% w/v solution (prepared 24 h prior) and administered by intraplantar injection to the left hind paw of mice in a volume of 40 μL under light isoflurane (3%) anaesthesia. Behavioural assessment (mechanical and thermal thresholds) was performed 3 hours after injection of carrageenan.
Mechanical allodynia was assessed using an electronic von Frey apparatus (MouseMet Electronic von Frey, TopCat Metrology Ltd, United Kingdom). […] The force that elicited paw withdrawal was calculated using the MouseMet Software. The paw withdrawal force (PWF) was determined from the average of three tests, separated by at least 2 min.
Mice were habituated in individual mouse runs for at least 5 min prior to testing. […] Removal of the paw and/or the probe by the investigator terminates heating, and triggers display of the withdrawal temperature on the readout, without the need for the investigator to manually stop the heating or record the temperature, until the reset button is pressed. The temperature that elicited a paw withdrawal, known as the paw withdrawal temperature (PWT), was determined by a single test.

The test system of data set [5] is OD1-induced spontaneous pain behaviours in mice. Nature of the data set: OD1 model of spontaneous pain behaviours. The format is in vivo. The conditions noted are these: intraplantar 1 μM, co-injected with OD1. The method, then:
as §1
OD1 was diluted in phosphate-buffered saline/0.1% BSA (300 nM) and administered by shallow subcutaneous (intraplantar) injection to the left hind paw of mice in a volume of 40 μL under light isoflurane (3%) anesthesia. Mice were then placed individually into polyvinyl boxes (10×10×10 cm), and spontaneous pain behavior (licks and flinches) was counted by an investigator unaware of the treatments received from video recordings for 10 min post-injection.

T3 sequence (Q9NY46 whole entry): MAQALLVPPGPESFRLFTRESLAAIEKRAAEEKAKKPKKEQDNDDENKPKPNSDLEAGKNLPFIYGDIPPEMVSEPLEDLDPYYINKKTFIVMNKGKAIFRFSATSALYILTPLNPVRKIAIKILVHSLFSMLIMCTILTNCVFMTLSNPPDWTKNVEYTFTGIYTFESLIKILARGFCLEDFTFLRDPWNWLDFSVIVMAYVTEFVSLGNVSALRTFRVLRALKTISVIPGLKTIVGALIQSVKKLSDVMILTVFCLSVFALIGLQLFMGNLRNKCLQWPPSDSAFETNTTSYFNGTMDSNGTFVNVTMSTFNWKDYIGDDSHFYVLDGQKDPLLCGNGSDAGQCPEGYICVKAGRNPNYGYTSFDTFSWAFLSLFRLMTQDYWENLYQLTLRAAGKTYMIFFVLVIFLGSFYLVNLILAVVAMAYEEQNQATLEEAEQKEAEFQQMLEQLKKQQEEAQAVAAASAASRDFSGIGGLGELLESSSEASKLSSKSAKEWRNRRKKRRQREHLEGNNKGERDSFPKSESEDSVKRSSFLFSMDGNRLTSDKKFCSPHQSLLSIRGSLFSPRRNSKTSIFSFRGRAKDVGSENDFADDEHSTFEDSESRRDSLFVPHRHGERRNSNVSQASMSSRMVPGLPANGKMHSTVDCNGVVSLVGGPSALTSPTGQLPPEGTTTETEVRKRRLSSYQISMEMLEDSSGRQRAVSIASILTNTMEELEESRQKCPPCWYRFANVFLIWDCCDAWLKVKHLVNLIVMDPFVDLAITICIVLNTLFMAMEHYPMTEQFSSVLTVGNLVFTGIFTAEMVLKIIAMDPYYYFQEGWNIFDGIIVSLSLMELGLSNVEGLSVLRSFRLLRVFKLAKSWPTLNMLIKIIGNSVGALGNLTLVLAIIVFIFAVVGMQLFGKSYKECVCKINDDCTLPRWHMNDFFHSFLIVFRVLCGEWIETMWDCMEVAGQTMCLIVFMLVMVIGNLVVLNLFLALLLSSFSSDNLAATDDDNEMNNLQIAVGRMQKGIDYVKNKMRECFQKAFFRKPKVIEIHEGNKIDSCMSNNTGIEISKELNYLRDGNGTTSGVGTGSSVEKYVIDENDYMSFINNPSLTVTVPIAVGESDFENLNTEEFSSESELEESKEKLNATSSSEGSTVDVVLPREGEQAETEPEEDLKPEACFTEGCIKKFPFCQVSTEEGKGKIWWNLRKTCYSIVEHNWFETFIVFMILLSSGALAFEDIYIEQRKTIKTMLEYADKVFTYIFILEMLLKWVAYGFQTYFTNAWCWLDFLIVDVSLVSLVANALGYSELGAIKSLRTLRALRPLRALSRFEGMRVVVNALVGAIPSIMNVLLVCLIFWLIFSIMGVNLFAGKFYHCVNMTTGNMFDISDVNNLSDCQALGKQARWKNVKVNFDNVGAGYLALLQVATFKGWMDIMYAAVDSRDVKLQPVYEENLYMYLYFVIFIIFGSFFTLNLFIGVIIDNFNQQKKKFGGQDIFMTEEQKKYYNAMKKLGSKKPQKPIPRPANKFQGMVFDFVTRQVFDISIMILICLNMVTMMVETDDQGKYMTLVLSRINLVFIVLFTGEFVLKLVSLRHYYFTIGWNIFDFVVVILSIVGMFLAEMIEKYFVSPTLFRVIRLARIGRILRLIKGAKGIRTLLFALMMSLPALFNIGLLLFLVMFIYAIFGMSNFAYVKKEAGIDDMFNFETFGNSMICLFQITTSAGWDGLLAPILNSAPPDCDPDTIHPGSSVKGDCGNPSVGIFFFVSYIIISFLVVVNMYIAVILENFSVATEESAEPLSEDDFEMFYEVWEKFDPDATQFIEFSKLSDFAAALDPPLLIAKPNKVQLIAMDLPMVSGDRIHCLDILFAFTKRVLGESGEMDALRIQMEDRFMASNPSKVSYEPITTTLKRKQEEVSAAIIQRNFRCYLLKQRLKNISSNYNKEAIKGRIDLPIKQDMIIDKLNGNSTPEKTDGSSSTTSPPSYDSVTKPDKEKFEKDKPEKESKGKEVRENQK
T2 sequence (Q99250 whole entry): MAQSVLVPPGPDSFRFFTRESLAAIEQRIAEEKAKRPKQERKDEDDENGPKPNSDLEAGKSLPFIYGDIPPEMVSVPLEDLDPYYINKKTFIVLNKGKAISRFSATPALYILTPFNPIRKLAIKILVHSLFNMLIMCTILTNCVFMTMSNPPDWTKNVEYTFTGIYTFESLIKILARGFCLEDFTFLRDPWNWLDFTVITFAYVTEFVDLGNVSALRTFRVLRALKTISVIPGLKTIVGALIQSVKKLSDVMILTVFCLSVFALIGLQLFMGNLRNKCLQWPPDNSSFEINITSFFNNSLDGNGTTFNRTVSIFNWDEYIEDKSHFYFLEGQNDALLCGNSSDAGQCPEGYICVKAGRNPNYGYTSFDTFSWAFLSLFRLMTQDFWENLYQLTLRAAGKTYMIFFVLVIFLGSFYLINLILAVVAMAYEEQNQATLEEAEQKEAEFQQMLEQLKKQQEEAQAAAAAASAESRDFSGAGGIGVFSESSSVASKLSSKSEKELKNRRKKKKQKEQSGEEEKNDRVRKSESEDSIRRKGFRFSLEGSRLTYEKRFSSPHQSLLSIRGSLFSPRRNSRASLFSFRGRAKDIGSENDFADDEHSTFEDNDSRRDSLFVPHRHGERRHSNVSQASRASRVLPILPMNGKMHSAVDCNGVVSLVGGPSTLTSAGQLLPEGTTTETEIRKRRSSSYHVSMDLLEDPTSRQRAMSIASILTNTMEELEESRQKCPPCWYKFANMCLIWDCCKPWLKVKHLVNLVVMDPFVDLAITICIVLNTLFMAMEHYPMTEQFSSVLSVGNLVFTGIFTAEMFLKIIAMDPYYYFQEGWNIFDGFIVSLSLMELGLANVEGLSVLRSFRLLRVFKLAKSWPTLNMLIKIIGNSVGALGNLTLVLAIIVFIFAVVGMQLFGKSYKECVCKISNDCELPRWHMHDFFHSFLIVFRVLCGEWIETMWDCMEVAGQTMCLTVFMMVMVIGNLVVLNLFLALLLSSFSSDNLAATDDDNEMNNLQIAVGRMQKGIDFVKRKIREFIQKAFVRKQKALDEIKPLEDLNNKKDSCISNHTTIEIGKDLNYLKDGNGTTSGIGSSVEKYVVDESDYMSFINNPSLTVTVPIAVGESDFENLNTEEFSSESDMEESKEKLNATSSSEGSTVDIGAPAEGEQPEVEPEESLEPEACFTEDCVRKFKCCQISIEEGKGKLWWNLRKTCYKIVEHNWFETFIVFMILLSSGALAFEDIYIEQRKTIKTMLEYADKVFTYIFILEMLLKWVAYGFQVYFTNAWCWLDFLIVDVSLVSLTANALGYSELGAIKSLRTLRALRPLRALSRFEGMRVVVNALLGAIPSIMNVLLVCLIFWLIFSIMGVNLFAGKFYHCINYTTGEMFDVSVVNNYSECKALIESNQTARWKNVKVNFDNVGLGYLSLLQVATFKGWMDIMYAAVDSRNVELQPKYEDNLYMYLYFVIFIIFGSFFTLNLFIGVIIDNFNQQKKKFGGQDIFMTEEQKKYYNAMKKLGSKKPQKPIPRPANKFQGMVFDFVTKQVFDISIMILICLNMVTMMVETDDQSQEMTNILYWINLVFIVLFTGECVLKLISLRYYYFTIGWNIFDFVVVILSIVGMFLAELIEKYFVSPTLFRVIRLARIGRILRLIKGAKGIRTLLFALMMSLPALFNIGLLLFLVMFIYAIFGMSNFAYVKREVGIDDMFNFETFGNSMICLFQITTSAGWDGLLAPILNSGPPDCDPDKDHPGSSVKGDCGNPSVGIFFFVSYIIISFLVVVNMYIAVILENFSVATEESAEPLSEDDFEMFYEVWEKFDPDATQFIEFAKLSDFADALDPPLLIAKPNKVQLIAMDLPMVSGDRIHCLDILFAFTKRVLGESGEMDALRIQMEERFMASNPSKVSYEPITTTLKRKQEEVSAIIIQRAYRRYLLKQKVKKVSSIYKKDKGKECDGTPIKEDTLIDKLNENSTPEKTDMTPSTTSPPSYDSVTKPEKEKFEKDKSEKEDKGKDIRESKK

With `NC(=O)[C@@H]1CC[C@H](c2ccc(OCc3ccccc3F)cc2)N1` [CNV1014802, raxatrigine], the “ataxia index (foot slips per metre travelled) compared to vehicle control” value in data set [1] was “no significant effect”.

Take `CSCC[C@@H]1NC(=O)[C@H](Cc2ccc(O)cc2)NC(=O)[C@H](CCCNC(=N)N)NC(=O)[C@@H](NC(=O)[C@@H](N)CC(=O)O)CSSC[C@@H]2NC(=O)[C@@H]3CSSC[C@@H](C(=O)N[C@@H](C)C(=O)N[C@@H](Cc4c[nH]c5ccccc45)C(=O)N[C@@H](CC(=O)O)C(=O)N[C@@H](Cc4ccccc4)C(=O)N[C@H](C(=O)N[C@@H](Cc4ccccc4)C(=O)N[C@H](C(=O)O)[C@@H](C)O)[C@@H](C)O)NC(=O)[C@H](Cc4ccc(O)cc4)NC(=O)[C@H](CCCCN)NC(=O)[C@H](CCSC)NC(=O)[C@H](CC(=O)O)NC(=O)[C@H](CCCNC(=N)N)NC(=O)[C@H](CCCCN)NC(=O)[C@H](CSSC[C@H](NC(=O)[C@H](CC(=O)O)NC(=O)CNC(=O)[C@H](Cc4ccccc4)NC1=O)C(=O)N[C@@H](CCC(=O)O)C(=O)N[C@@H](CCCCN)C(=O)N[C@@H](CC(=O)O)C(=O)N[C@@H](CCC(=O)O)C(=O)N[C@@H](CC(=O)O)C(=O)N3)NC(=O)CNC(=O)[C@H](CC(C)C)NC(=O)[C@H](Cc1c[nH]cn1)NC(=O)[C@H](CCCCN)NC2=O` [[K24D]Pnc1a] (H-DCRYMFGDCEKDEDCCKHLGCKRDMKYCAWDFTFT-OH; disulfide 2-16, 9-21, 15-28): on hNav1.1, the IC50 was 32 µM and the “Selectivity for Nav1.7, Nav subtype 1.1” value amounted to 63. Further, on hNav1.2, the IC50 turned out to be 38 µM and the “Selectivity for Nav1.7, Nav subtype 1.2” value came to 7. On hNav1.3, inhibition was half-maximal at 20 µM (IC50) and the “Selectivity for Nav1.7, Nav subtype 1.3” value was 39. At hNav1.4, the IC50 is 12 µM and the “Selectivity for Nav1.7, Nav subtype 1.4” value was determined as 24. In addition, at hNav1.5, the IC50 was over 30 µM and the “Selectivity for Nav1.7, Nav subtype 1.5” value is listed as 59. At hNav1.6, the IC50 was over 30 µM and the “Selectivity for Nav1.7, Nav subtype 1.6” value is listed as 14. Moreover, on hNav1.7 [2], the IC50 was 0.51 µM and the “Selectivity for Nav1.7, Nav subtype 1.7” value was found to be 1. At hNav1.8, the IC50 was over 30 µM and the “Selectivity for Nav1.7, Nav subtype 1.8” value stood at 40. Also, the “effect on the current voltage (IV) relationship of Nav1.7” value at hNav1.7 [3] is given as “minimal effect”.

With `CSCC[C@@H]1NC(=O)[C@H](C)NC(=O)[C@H](CCCNC(=N)N)NC(=O)[C@@H](NC(=O)[C@@H](N)CC(=O)O)CSSC[C@@H]2NC(=O)[C@@H]3CSSC[C@@H](C(=O)N[C@@H](C)C(=O)N[C@@H](Cc4c[nH]c5ccccc45)C(=O)N[C@@H](CC(=O)O)C(=O)N[C@@H](Cc4ccccc4)C(=O)N[C@H](C(=O)N[C@@H](Cc4ccccc4)C(=O)N[C@H](C(=O)O)[C@@H](C)O)[C@@H](C)O)NC(=O)[C@H](Cc4ccc(O)cc4)NC(=O)[C@H](CCCCN)NC(=O)[C@H](CCSC)NC(=O)[C@H](CCCCN)NC(=O)[C@H](CCCNC(=N)N)NC(=O)[C@H](CCCCN)NC(=O)[C@H](CSSC[C@H](NC(=O)[C@H](CC(=O)O)NC(=O)CNC(=O)[C@H](Cc4ccccc4)NC1=O)C(=O)N[C@@H](CCC(=O)O)C(=O)N[C@@H](CCCCN)C(=O)N[C@@H](CC(=O)O)C(=O)N[C@@H](CCC(=O)O)C(=O)N[C@@H](CC(=O)O)C(=O)N3)NC(=O)CNC(=O)[C@H](CC(C)C)NC(=O)[C@H](Cc1c[nH]cn1)NC(=O)[C@H](CCCCN)NC2=O` [[Y4A]Pnc1a] (H-DCRAMFGDCEKDEDCCKHLGCKRKMKYCAWDFTFT-OH; disulfide 2-16, 9-21, 15-28), at hNav1.1, 17 µM corresponded to half-maximal inhibition (IC50) and the “Selectivity for Nav1.7, Nav subtype 1.1” value worked out at 19. For the same compound, on hNav1.2, the IC50 is 8 µM and the “Selectivity for Nav1.7, Nav subtype 1.2” value worked out at 8. For the same compound, at hNav1.3, the IC50 came to 20 µM and the “Selectivity for Nav1.7, Nav subtype 1.3” value is 22. For the same compound, at hNav1.4, the IC50 is 12 µM and the “Selectivity for Nav1.7, Nav subtype 1.4” value worked out at 12. Further, at hNav1.5, the IC50 came out at 18 µM and the “Selectivity for Nav1.7, Nav subtype 1.5” value was 20. Further, on hNav1.6, the IC50 is over 30 µM and the “Selectivity for Nav1.7, Nav subtype 1.6” value is reported as over 30. Further, at hNav1.7 [2], half-maximal inhibition (IC50) required 0.934 µM and the “Selectivity for Nav1.7, Nav subtype 1.7” value amounted to 1. On hNav1.8, the IC50 is over 30 µM and the “Selectivity for Nav1.7, Nav subtype 1.8” value is listed as over 30.

Take `NCC1(CC(=O)O)CCCCC1` [gabapentin]: in [1], the “ataxia index (foot slips per metre travelled) compared to vehicle control” value is reported as “significant increase”.

`C=CC[N+]1(C)CC[C@]23c4c5ccc(O)c4O[C@H]2C(=O)CC[C@@]3(O)[C@H]1C5` (some centres unmarked) [naloxone methiodide]: in data set [4], the “analgesic effects of the Pnc1a/oxycodone combination on mechanical allodynia” value is given as “reversed” and the “analgesic effects of the Pnc1a/oxycodone combination on thermal allodynia” value is on record as “reversed”.

Consider “ProTxII: Nav1.7 selective inhibitor (Peptides International) [reference compound]”, for which the “OD1-induced pain behaviours, compared to an equivalent concentration of Pnc1a” value in data set [5] is recorded as “only partially reversed”.
